Measurements from patent US20130310379A1, “MODULATORS OF METHYL MODIFYING ENZYMES, COMPOSITIONS AND USES THEREOF” (CONSTELLATION PHARMACEUTICALS, priority 2010, published 2013).

Target: EZH2 (Homo sapiens, UniProt Q15910)
Assay: EZH2 assay: rPRC2 with biotinylated oligonucleosome substrates and 3H SAM, FlashPlate scintillation counting, IC50
Assay type: biochemical
Details: rPRC2, biotinylated oligonucleosome substrates, 3H SAM; read-out: EZH2 IC50
Description: Assays were carried out by mixing rPRC2 together with biotinylated oligonucleosome substrates in the presence of the radio-labeled enzyme co-factor, S-adenosyl-L-methionine (^3H SAM) (Perkin Elmer) and monitoring the enzymatically mediated transfer of tritiated methyl groups from ^3H SAM to histone lysine residues. The amount of resulting tritated methylhistone product was measured by first capturing the biotinylated oligonuclesomes in streptavidin (SAV) coated FlashPlates (Perkin Elmer), followed by a wash step to remove un-reacted ^3H SAM, and then counting on a TopCount NXT 384 well plate scintillation counter (Perkin Elmer). The final assay conditions for EZH2 were as follows: 50 mM Tris Buffer pH 8.5, 1 mM DTT, 69 uM Brij-35 detergent, 5.0 mM MgCl2, 0.1 mg/mL BSA, 0.2 uM ^3H SAM, 0.2 uM biotinylated oligonucleosomes, 3.6 uM H3K27me3 peptide and 2 nM EZH2.
Compound IC50 measurements were obtained as follows: Compounds were first dissolved in 100% DMSO as 10 mM stock solutions. […] A 12.5 uL volume of the HMT enzyme, H3K27me3 peptide and oligonucleosome substrate in assay buffer was added to each well of the assay plate using a Multidrop Combi (ThermoFisher). Compounds were pre-incubated with the enzyme for 20 min, followed by initiation of the methyltransferase reaction by addition of 12.5 uL of 3H SAM in assay buffer (final volume=25 uL). The final concentrations of compounds ranged from a top default concentration of 80 uM down to 0.16 uM in ten 2-fold dilution steps. Reactions were carried out for 60 minutes and quenched with 20 uL per well of 1.96 mM SAH, 50 mM Tris PH 8.5, 200 mM EDTA. Stopped reactions were transferred to SAV coated Flashplates (Perkin Elmer), incubated for 120 min, washed with a plate washer, and then read on the TopCount NXT (1.0 min/well) to measure the amount of methylhistone product formed during the reaction. The amount of methylhistone product was compared with the amount of product formed in the 0% and 100% inhibition control wells allowing the calculation of % Inhibition in the presence of the individual compounds at various concentrations. IC50's were computed using a 4 parameter fit non-linear curve fitting software package (XLFIT, part of the database package, ActivityBase (IDBS)) where the four parameters were IC50, Hill slope, pre-transitional baseline (0% INH), and post-transitional baseline (100% INH); with the latter two parameters being fixed to zero and 100%, respectively, by default.

EZH2, sequence (Q15910 whole entry): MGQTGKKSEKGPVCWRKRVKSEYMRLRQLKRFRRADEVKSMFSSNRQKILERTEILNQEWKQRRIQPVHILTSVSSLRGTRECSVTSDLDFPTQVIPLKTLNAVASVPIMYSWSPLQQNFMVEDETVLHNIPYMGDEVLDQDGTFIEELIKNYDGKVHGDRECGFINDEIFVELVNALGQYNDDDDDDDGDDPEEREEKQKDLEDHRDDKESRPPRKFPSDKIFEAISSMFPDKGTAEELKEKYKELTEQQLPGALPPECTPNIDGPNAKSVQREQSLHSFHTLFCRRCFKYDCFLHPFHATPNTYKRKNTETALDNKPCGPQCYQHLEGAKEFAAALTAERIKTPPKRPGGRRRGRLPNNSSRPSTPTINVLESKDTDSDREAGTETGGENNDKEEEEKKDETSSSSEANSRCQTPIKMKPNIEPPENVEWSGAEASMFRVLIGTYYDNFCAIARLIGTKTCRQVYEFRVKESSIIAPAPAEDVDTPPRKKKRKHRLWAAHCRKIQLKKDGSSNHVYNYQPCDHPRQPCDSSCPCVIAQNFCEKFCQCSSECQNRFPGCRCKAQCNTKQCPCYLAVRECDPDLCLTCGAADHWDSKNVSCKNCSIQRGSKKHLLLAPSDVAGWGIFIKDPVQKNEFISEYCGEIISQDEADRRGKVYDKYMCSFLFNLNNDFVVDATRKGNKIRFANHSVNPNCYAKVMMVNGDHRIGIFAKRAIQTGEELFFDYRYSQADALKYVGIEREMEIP
EZH2, sequence (O75530 whole entry partner): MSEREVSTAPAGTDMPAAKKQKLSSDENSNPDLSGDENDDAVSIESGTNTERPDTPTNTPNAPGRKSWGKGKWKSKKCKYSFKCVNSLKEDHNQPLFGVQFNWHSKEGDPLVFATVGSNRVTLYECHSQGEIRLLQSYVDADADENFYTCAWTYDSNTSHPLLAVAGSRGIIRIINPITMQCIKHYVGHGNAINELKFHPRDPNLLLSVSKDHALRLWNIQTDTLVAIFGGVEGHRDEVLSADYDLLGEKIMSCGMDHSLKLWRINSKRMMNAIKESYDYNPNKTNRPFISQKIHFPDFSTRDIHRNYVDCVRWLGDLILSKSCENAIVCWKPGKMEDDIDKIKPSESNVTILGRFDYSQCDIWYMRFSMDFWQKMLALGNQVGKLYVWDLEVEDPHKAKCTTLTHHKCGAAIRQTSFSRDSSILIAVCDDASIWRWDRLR
EZH2, sequence (Q15022 whole entry partner): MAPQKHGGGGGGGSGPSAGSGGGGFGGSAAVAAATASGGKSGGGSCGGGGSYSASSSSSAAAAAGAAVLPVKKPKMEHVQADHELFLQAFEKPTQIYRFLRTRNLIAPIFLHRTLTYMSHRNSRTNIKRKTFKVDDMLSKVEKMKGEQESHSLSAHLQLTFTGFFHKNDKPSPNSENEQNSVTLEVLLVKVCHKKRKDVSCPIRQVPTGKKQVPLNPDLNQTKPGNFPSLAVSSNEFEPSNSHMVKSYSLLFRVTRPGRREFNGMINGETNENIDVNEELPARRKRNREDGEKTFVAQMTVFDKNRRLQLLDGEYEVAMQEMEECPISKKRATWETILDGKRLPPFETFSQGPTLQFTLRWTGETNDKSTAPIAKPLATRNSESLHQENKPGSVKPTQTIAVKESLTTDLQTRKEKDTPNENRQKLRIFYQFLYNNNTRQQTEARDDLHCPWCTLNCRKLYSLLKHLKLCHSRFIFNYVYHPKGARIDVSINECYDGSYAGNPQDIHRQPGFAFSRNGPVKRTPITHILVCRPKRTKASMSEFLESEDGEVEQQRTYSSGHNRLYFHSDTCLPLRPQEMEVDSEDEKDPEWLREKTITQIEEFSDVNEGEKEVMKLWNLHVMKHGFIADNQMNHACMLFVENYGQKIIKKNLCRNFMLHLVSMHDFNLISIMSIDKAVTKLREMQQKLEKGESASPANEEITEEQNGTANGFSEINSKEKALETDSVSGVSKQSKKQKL

| Compound | IC50 [µM] |
| --- | --- |
| CC1(C)CC(NC(=O)c2ccc(CNc3ccccc3)cc2)CC(C)(C)N1 [Compound I-106, 4-((Phenylamino)methyl)-N-(2,2,6,6-tetramethylpiperidin-4-yl)benzamide] | > 80 |
| CC1(C)CC(NC(=O)c2ccc(OC[C@@H]3CCCN3)c(Cl)c2)CC(C)(C)N1 [Compound I-410] | > 80 |
| CC1(C)CC(NC(=O)c2ccc(Oc3ccccc3OCc3ccccc3)c(Cl)c2)CC(C)(C)N1 [Compound I-194] | < 5 |
| CC1(C)CC(NC(=O)c2ccc(-n3ncc4c(Br)cccc43)c(Cl)c2)CC(C)(C)N1 [Compound I-490] | 5 to 20 |
| N#Cc1ccccc1Oc1ccc(C(=O)NC2CCN(CCN)CC2)cc1Cl [Compound I-460] | > 80 |
| Cc1ccc(-c2cccc(OCc3ccc(C(=O)NC4CC(C)(C)NC(C)(C)C4)cc3)c2)s1 [Compound I-18] | 5 to 20 |
| CC1(C)CC(NC(=O)c2ccc(Oc3ccccc3-c3ccccn3)c(Cl)c2)CC(C)(C)N1 [Compound I-225] | 5 to 20 |
| CC1(C)CC(NC(=O)c2ccc(Oc3ccccc3C(N)=O)c(Cl)c2)CC(C)(C)N1 [Compound I-284] | 5 to 20 |
| N#Cc1c(Oc2ccc(C(=O)NC3CCNCC3C#N)cc2Cl)cccc1-c1ccnnc1 (stereo not drawn) [Compound I-329] | > 80 |
| COCc1ccccc1Oc1ccc(C(=O)NC2CC(C)(C)NC(C)(C)C2)cc1 [Compound I-248] | 20 to 80 |
| CC1(C)CC(NC(=O)c2ccc(OC3CCNC3)c(Cl)c2)CC(C)(C)N1 (stereo not drawn) [Compound I-411] | > 80 |
| Cc1cccc(OCc2ccc(C(=O)NC3CC(C)(C)NC(C)(C)C3)cc2)c1C [Compound I-54] | 20 to 80 |
| Cc1ccncc1-c1cccc(Oc2ccc(C(=O)NC3CC(C)(C)NC(C)(C)C3)cc2Cl)c1C#N [Compound I-365] | < 5 |
| CC1(C)CC(NC(=O)c2ccc(NC(=O)c3cccc(Br)c3)cc2)CC(C)(C)N1 [Compound I-162] | 20 to 80 |
| CC1(C)CC(NC(=O)c2ccc(Oc3cccc(-c4ccnnc4)c3C#N)c(Cl)c2)CC(C)(C)S1 [Compound I-517] | 5 to 20 |
| CC1(C)CC(NC(=O)c2ccc(COc3cccc(-c4ccc(F)nc4)c3)cc2)CC(C)(C)N1 [Compound I-19] | 5 to 20 |
| CC1(C)CC(NC(=O)c2ccc(Oc3ccccc3-c3ccc(N)nc3)c(Cl)c2)CC(C)(C)N1 [Compound I-227] | < 5 |
| CN1C(C)(C)CC(NC(=O)c2ccc(Oc3ccccc3C#N)c(Cl)c2)CC1(C)C [Compound I-289] | < 5 |
| CC1CCCCC1Oc1ccc(C(=O)NC2CC(C)(C)NC(C)(C)C2)cc1 (stereo not drawn) [Compound I-298] | > 80 |
| CC1(C)CC(NC(=O)c2ccc(Oc3cccc(CC#N)c3)c(Cl)c2)CC(C)(C)N1 [Compound I-451] | < 5 |
| O=C(NCCc1cccnc1)c1ccc(Oc2ccccc2)cc1 [Compound I-102] | > 80 |
| CC(C)c1ccc(C(=O)NC2CC(C)(C)NC(C)(C)C2)cc1 [Compound I-135] | > 80 |
| CC(O)c1ccccc1Oc1ccc(C(=O)NC2CC(C)(C)NC(C)(C)C2)cc1Cl (stereo not drawn) [Compound I-455] | 5 to 20 |
| N#Cc1c(Br)cccc1Oc1ccc(C(=O)NC2CCNCC2)cc1Cl [Compound I-407] | > 80 |
| CC1(C)CC(NC(=O)c2ccc(Oc3ccccc3C3CCCCC3)cc2)CC(C)(C)N1 [Compound I-150] | 5 to 20 |
| CC1(C)CC(NC(=O)c2ccc(COc3cccc(F)c3)cc2)CC(C)(C)N1 [Compound I-59] | 20 to 80 |
| CC1(C)CC(NC(=O)c2ccc(Oc3ccccc3C#N)c(Cl)c2)CC(C)(C)N1CCCO [Compound I-489, 3-chloro-4-(2-cyanophenoxy)-N-(1-(3-hydroxypropyl)-2,2,6,6-tetramethylpiperidin-4-yl)benzamide] | < 5 |
| CC1(C)CC(NC(=O)c2ccc(Oc3ccccc3O)cc2)CC(C)(C)N1 [Compound I-123] | > 80 |
| Cc1ncccc1-c1ccccc1Oc1ccc(C(=O)NC2CC(C)(C)NC(C)(C)C2)cc1Cl [Compound I-293] | 5 to 20 |
| O=C(c1ccc(Oc2ccccc2)cc1)N1CCN(c2ccccc2)CC1 [Compound I-99] | > 80 |
